According to patent publication US8106055B2, “Substituted amide compounds” (Gruenenthal GmbH, priority 2007, dated 2012):

Tests used:
[1] = molecular target: T1, serotonin (5-HT) reuptake (Rattus norvegicus, UniProt P31652); assay: Inhibition of serotonin (5HT) reuptake in synaptosomes from rat brain; assay type: biochemical; conditions: test concentration of 10 μM; for inhibition at 10 µM: read-out: 5-HT (inhibition of reuptake of serotonin, % inhibition)
T1 construct: synaptosomes are freshly isolated from areas of the rat brain; from tissue; host or cells: rat brain synaptosomes (P2 fraction)
T1 sequence (P31652 whole entry): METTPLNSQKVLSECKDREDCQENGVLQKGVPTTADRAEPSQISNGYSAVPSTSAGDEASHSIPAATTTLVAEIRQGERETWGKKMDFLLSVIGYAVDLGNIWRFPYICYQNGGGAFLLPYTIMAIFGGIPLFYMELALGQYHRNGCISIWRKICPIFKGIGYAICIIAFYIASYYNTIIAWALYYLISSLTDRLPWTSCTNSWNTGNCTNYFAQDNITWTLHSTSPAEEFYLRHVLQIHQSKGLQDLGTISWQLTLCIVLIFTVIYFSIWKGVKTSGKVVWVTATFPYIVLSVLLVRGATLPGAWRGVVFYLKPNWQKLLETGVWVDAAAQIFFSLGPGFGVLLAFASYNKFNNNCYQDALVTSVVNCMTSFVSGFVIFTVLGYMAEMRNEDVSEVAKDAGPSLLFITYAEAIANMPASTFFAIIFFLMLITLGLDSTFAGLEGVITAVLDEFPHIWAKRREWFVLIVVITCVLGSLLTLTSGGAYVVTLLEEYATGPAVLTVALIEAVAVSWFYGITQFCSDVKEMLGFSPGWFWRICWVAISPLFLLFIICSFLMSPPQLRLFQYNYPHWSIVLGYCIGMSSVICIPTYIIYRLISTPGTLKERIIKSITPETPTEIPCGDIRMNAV
Summary of the method: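 Compounds screened at 10 μM and reported as percent inhibition of serotonin uptake. Uptake measured in a freshly prepared P2 synaptosomal fraction from rat brain.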

[2] = molecular target: T2, human bradykinin 1 receptor (B1R) (Homo sapiens, UniProt P46663); assay: Functional investigation on the human bradykinin 1 receptor (B1R), Ca2+ FLIPR assay in CHO K1 hB1R cells; assay type: cell-based; conditions: test substance 10 μM, Ca2+ FLIPR, CHO K1 hB1R cells; for inhibition at 10 µM: CHO-K1, B1R antagonism human, read-out: B1R Ant. h [10 μM] % Inhibition; for B1R Ant. h [10 μM] % Inhibition: B1R antagonism human
T2 construct: expressed in transfected cells; host or cells: CHO K1 cells
T2 sequence (P46663 1-353): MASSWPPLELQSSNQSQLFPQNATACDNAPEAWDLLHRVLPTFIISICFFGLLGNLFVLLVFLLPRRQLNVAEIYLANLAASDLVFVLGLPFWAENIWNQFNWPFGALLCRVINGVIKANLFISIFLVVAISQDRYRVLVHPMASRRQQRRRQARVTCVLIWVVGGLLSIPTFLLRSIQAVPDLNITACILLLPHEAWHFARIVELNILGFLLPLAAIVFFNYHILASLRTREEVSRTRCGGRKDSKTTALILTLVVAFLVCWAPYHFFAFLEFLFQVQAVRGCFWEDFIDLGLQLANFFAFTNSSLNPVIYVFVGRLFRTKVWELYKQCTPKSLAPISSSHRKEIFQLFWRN
Summary of the method: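 Peak Ca2+-dependent fluorescence in B1R-transfected CHO K1 cells measures antagonism of an EC80 agonist challenge given 10-20 min after compound. Agonist is Lys-Des-Arg9-bradykinin for human, Des-Arg9-bradykinin for rat receptor.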

Row | Compound | inhibition at 10 µM [1] [%] | inhibition at 10 µM [2] [%] | 5-HT (inhibition of reuptake of serotonin, % inhibition) ([1]; 10 µM) [%] | B1R Ant. h [10 μM] % Inhibition [2] [%] | 5-HT (inhibition of reuptake of serotonin, % inhibition) [1] [%]
1 | CN(C)C(c1ccccc1)C1CCC(CNC(=O)COCCN(C)S(=O)(=O)c2ccc(F)cc2)CC1 (centres unmarked) [Example 112, N-((4-((dimethylamino)(phenyl)methyl)cyclohexyl)methyl)-2-(2-(4-fluoro-N-methylphenylsulfonamido)ethoxy)acetamide] | 85 | -1 |  |  | 
2 | CN(C)C(c1ccccc1)C1CCC(CNC(=O)COC2CCN(S(=O)(=O)c3cccc(C(F)(F)F)c3)C2)CC1 (centres unmarked) [Example 113, N-((4-((dimethylamino)(phenyl)methyl)cyclohexyl)methyl)-2-(1-(3-(trifluoromethyl)phenylsulfonyl)pyrrolidin-3-yloxy)acetamide] | 88 | -1 |  |  | 
3 | CN(C)C(c1ccccc1)C1CCC(CNC(=O)COC2CCCN(S(=O)(=O)c3ccccc3)C2)CC1 (centres unmarked) [Example 114, N-((4-((dimethylamino)(phenyl)methyl)cyclohexyl)methyl)-2-(1-(phenylsulfonyl)piperidin-3-yloxy)acetamide] | 96 | -17 |  |  | 
4 | CN(C)C(c1cccs1)C1CCC(CCNC(=O)COCC2CCCN(S(=O)(=O)c3ccccc3)C2)CC1 (centres unmarked) [Example 115, N-(2-(4-((dimethylamino)(thiophen-2-yl)methyl)cyclohexyl)ethyl)-2-((1-(phenylsulfonyl)piperidin-3-yl)methoxy)acetamide] | 97 | 10 |  |  | 
5 | CN(C)C(c1cccs1)C1CCC(CCNC(=O)COCCN(Cc2ccccc2)S(=O)(=O)c2ccccc2)CC1 (centres unmarked) [Example 116, 2-(2-(N-benzylphenylsulfonamido)ethoxy)-N-(2-(4-((dimethylamino)(thiophen-2-yl)methyl)cyclohexyl)ethyl)acetamide] | 97 | 28 |  |  | 
6 | CCN(CCOCC(=O)NCC1CCC(C(c2cccc(F)c2)N(C)C)CC1)S(=O)(=O)c1c(C)cc(OC)c(C)c1C (centres unmarked) [Example 117, N-((4-((dimethylamino)(3-fluorophenyl)methyl)cyclohexyl)methyl)-2-(2-(N-ethyl-4-methoxy-2,3,6-trimethylphenylsulfonamido)ethoxy)acetamide] | 94 | 76 |  |  | 
7 | COc1cc(C)c(S(=O)(=O)N2CCC(CCOCC(=O)NC3CCC(C(c4cccc(F)c4)N(C)C)CC3)CC2)c(C)c1C (centres unmarked) [Example 118, N-(4-((dimethylamino)(3-fluorophenyl)methyl)cyclohexyl)-2-(2-(1-(4-methoxy-2,3,6-trimethylphenylsulfonyl)piperidin-4-yl)ethoxy)acetamide] | 92 | 23 |  |  | 
8 | CN(C)C(c1cccc(F)c1)C1CCC(CNC(=O)COCC2CCCN2S(=O)(=O)c2ccc(Cl)c(Cl)c2)CC1 (centres unmarked) [Example 119, 2-((1-(3,4-dichlorophenylsulfonyl)pyrrolidin-2-yl)methoxy)-N-((4-((dimethylamino)(3-fluorophenyl)methyl)cyclohexyl)methyl)acetamide] | 96 | 67 |  |  | 
9 | COc1ccc(S(=O)(=O)N2CCCCC2COCC(=O)NCCC2CCC(C(c3cccs3)N(C)C)CC2)cc1OC (centres unmarked) [Example 120, 2-((1-(3,4-dimethoxyphenylsulfonyl)piperidin-2-yl)methoxy)-N-(2-(4-((dimethylamino)(thiophen-2-yl)methyl)cyclohexyl)ethyl)acetamide] | 91 | -12 |  |  | 
10 | Cc1ccc(S(=O)(=O)N2CCC(OCC(=O)NCC3CCC(C(c4ccccc4)N(C)C)CC3)C2)cc1 (centres unmarked) [Example 125, N-((4-((dimethylamino)(phenyl)methyl)cyclohexyl)methyl)-2-(1-tosylpyrrolidin-3-yloxy)acetamide] | 91 | 26 |  |  | 
11 | CN(C)C(c1cccc(F)c1)C1CCC(CCNC(=O)COCCN(C)S(=O)(=O)c2ccc(Cl)cc2Cl)CC1 (centres unmarked) [Example 126, 2-(2-(2,4-dichloro-N-methylphenylsulfonamido)ethoxy)-N-(2-(4-((dimethylamino)(3-fluorophenyl)methyl)cyclohexyl)ethyl)acetamide] | 86 | 103 |  |  | 
12 | COc1ccc(S(=O)(=O)N(C)CCOCC(=O)NCC2CCC(C(c3cccs3)N(C)C)CC2)cc1OC (centres unmarked) [Example 127, 2-(2-(3,4-Dimethoxy-N-methylphenylsulfonamido)ethoxy)-N-((4-((dimethylamino)(thiophen-2-yl)methyl)cyclohexyl)methyl)acetamide] | 79 | -13 |  |  | 
13 | COc1ccc(S(=O)(=O)N(C)CCOCC(=O)NCCC2CCC(C(c3cccs3)N(C)C)CC2)cc1 (centres unmarked) [Example 128, N-(2-(4-((dimethylamino)(thiophen-2-yl)methyl)cyclohexyl)ethyl)-2-(2-(4-methoxy-N-methylphenylsulfonamido)ethoxy)acetamide] | 83 | 28 |  |  | 
14 | COc1cc(C)c(S(=O)(=O)N2CCCC(OCC(=O)NCCC3CCC(C(c4cccs4)N(C)C)CC3)C2)c(C)c1C (centres unmarked) [Example 130, N-(2-(4-((dimethylamino)(thiophen-2-yl)methyl)cyclohexyl)ethyl)-2-(1-(4-methoxy-2,3,6-trimethylphenylsulfonyl)piperidin-3-yloxy)acetamide] | 95 | 30 |  |  | 
15 | COc1cc(C)c(S(=O)(=O)N2CCC(CCOCC(=O)NCC3CCC(C(c4cccs4)N(C)C)CC3)CC2)c(C)c1C (centres unmarked) [Example 131, N-((4-((dimethylamino)(thiophen-2-yl)methyl)cyclohexyl)methyl)-2-(2-(1-(4-methoxy-2,3,6-trimethylphenylsulfonyl)piperidin-4-yl)ethoxy)acetamide] | 91 | 15 |  |  | 
16 | CN(C)C(c1cccc(F)c1)C1CCC(NC(=O)COC2CCCCC2N(C)S(=O)(=O)c2ccc(Cl)c(Cl)c2)CC1 (centres unmarked) [Example 132, 2-(2-(3,4-dichloro-N-methylphenylsulfonamido)cyclohexyloxy)-N-(4-((dimethylamino)(3-fluorophenyl)methyl)cyclohexyl)acetamide] | 83 | 40 |  |  | 
17 | COc1ccc(S(=O)(=O)N2CCCCC2COCC(=O)NCC2CCC(C(c3cccs3)N(C)C)CC2)cc1OC (centres unmarked) [Example 133, 2-((1-(3,4-Dimethoxyphenylsulfonyl)piperidin-2-yl)methoxy)-N-((4-((dimethylamino)(thiophen-2-yl)methyl)cyclohexyl)methyl)acetamide] | 88 | -23 |  |  | 
18 | CN(C)C(c1ccccc1)C1CCC(NC(=O)COCCN(C)S(=O)(=O)c2c(Cl)cccc2Cl)CC1 (centres unmarked) [Example 135, 2-(2-(2,6-dichloro-N-methylphenylsulfonamido)ethoxy)-N-(4-((dimethylamino)(phenyl)methyl)cyclohexyl)acetamide] | 83 | 79 |  |  | 
19 | COc1ccc(S(=O)(=O)N2CCCCC2COCC(=O)NCC2CCC(C(CCc3ccccc3)N(C)C)CC2)c(OC)c1 (centres unmarked) [Example 420] |  |  | 74 | −7 | 
20 | CN(C)C(CCc1ccccc1)C1CCC(CNC(=O)COCCN(C)S(=O)(=O)c2c(Cl)cccc2Cl)CC1 (centres unmarked) [Example 476] |  |  | 80 | 103 | 
21 | COc1ccc(S(=O)(=O)N2CCCCC2COCC(=O)NCC2CCC(C(CCc3ccccc3)N(C)C)CC2)c(OC)c1 (centres unmarked) [Example 486] |  |  | 73 | 28 | 
22 | CN(C)C(c1cccc(F)c1)C1CCC(CCNC(=O)COCCC2CCN(S(=O)(=O)c3ccccc3)CC2)CC1 (centres unmarked) [Example 543] |  |  |  | −31 | 76
23 | CN(C)C(CCc1ccccc1)C1CCC(CNC(=O)COCC2CCCN(S(=O)(=O)c3ccccc3)C2)CC1 (centres unmarked) [Example 544] |  |  |  | 22 | 92
24 | COc1cc(C)c(S(=O)(=O)N2CCC(OCC(=O)NCC3CCC(C(CCc4ccccc4)N(C)C)CC3)CC2)c(C)c1C (centres unmarked) [Example 546] |  |  |  | 34 | 91
25 | COc1cc(C)c(S(=O)(=O)N(CCOCC(=O)NCCC2CCC(C(c3ccc(F)cc3)N(C)C)CC2)Cc2ccccc2)c(C)c1 (centres unmarked) [Example 547] |  |  |  | 76 | 90
26 | COc1ccc(S(=O)(=O)N(C)CCOCC(=O)NC2CCC(C(c3ccc(F)cc3)N(C)C)CC2)cc1OC (centres unmarked) [Example 548] |  |  |  | 6 | 99
27 | COc1ccc(S(=O)(=O)N(C)CCOCC(=O)NC2CCC(C(c3ccc(F)cc3)N(C)C)CC2)cc1 (centres unmarked) [Example 549] |  |  |  | 13 | 81
28 | COc1ccc(S(=O)(=O)N(C)CCOCC(=O)NCC2CCC(C(CCc3ccccc3)N(C)C)CC2)cc1 (centres unmarked) [Example 550] |  |  |  | 62 | 74
